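Exposure lasted 48 hours, with cells grown in 96-well plates and compounds tested at five concentrations. Here, GI50 denotes the concentration required for 50% inhibition of growth. The concentration for full growth arrest is given as TGI.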
Experiments:
Test in all cases: NCI anticancer screen, dose series, 48 h
CAKI-1 renal = test system: CAKI-1 renal
CCRF-CEM leukemia = test system: CCRF-CEM leukemia
EKVX NSCLC = test system: EKVX NSCLC
HOP-62 NSCLC = test system: HOP-62 NSCLC
RXF 393 renal = test system: RXF 393 renal
SNB-19 CNS = test system: SNB-19 CNS
UACC-257 melanoma = test system: UACC-257 melanoma
DU-145 prostate = test system: DU-145 prostate
HS 578T breast = test system: HS 578T breast
T-47D breast = test system: T-47D breast

SMILES	TGI (CAKI-1 renal)	TGI (CCRF-CEM leukemia)	TGI (EKVX NSCLC)	TGI (HOP-62 NSCLC)	TGI (RXF 393 renal)	TGI (SNB-19 CNS)	TGI (UACC-257 melanoma)	GI50 (CAKI-1 renal)	GI50 (CCRF-CEM leukemia)	GI50 (DU-145 prostate)	TGI (DU-145 prostate)	GI50 (HOP-62 NSCLC)	GI50 (HS 578T breast)	TGI (HS 578T breast)	GI50 (RXF 393 renal)	GI50 (SNB-19 CNS)	GI50 (T-47D breast)	TGI (T-47D breast)	GI50 (EKVX NSCLC)	GI50 (UACC-257 melanoma)
N#C/C(=C\c1cc(O)ccc1O)C(N)=O	> 100 µM	53.9 µM	> 100 µM	> 100 µM	86.6 µM	> 100 µM	> 100 µM													
O=c1c2ccccc2nc(-c2ccccc2Cl)n1-c1nnc(C(F)(F)F)s1	10.1 µM	40.7 µM		29.7 µM	14.4 µM	> 100 µM		2.82 µM	3.13 µM	5.03 µM	> 100 µM	6.09 µM	2.38 µM	9.3 µM	2.77 µM	3.66 µM	3.76 µM	> 100 µM		
CC[C@]1(O)CC2CN(CCc3c([nH]c4ccccc34)[C@@](C(=O)OC)(c3cc4c(cc3OC)N(C=O)[C@H]3[C@@](O)(C(=O)OC)[C@H](OC(C)=O)[C@]5(CC)C=CCN6CC[C@]43[C@@H]65)C2)C1 (some centres undefined)	> 50 µM		> 50 µM	> 44.2 µM	> 50 µM	> 50 µM	> 38.4 µM	0.232 µM	< 0.005 µM	< 0.005 µM		0.0054 µM	0.0486 µM	> 46.1 µM	< 0.005 µM	< 0.005 µM			> 30.8 µM	< 0.005 µM
O=C(CO[N+](=O)[O-])OC/C=C/c1ccccc1	> 100 µM	> 100 µM	> 100 µM	> 100 µM	> 100 µM	> 100 µM	> 100 µM													
CN(C)C(=O)NC(=S)N(C)C	> 100 µM	> 100 µM	> 100 µM	1.52 µM	> 100 µM	> 100 µM	> 100 µM													
CN(NC1OC(CO)C(O)C(O)C1O)c1ccccc1 (centres undefined)	> 100 µM	> 100 µM		> 100 µM	> 100 µM	> 100 µM	> 100 µM													
COc1ccc(-c2ccccc2)c2[nH]c3c(c12)CCNC3=O	> 100 µM	> 100 µM	> 100 µM	> 100 µM	> 100 µM	> 100 µM	> 100 µM													
O=C(N/C(=C\c1ccccc1Cl)c1nc2ccccc2[nH]1)c1ccccc1	> 100 µM	> 100 µM	88 µM		91.5 µM	> 100 µM														
c1ccc(-c2n(Cc3ccc4ccccc4c3)cc[n+]2Cc2ccc3ccccc3c2)cc1		4.06 µM			2.44 µM				1.56 µM	1.38 µM	2.73 µM		1.61 µM	4.08 µM	1.12 µM					
NC1=NC(=O)/C(=C/c2ccc3ncccc3c2)S1	> 25 µM	> 25 µM		> 25 µM	> 25 µM	> 25 µM	> 25 µM	> 25 µM	> 25 µM	> 25 µM	> 25 µM	> 25 µM	> 25 µM	> 25 µM	> 25 µM	> 25 µM	> 15.6 µM	> 25 µM		> 25 µM
Clc1ccc2ncc(-c3cccc(NC4CNC4)n3)n2c1	84.1 µM	72.7 µM		65.4 µM	11.6 µM	> 100 µM	51.4 µM	4.51 µM	3.62 µM	4.58 µM	> 100 µM	5.98 µM	3.91 µM	20.6 µM	1.45 µM	24.1 µM	20.2 µM	73.8 µM		11.5 µM
Cc1cc(=O)n(-c2c(C)cccc2Cl)c(/C=C(\O)c2ccncc2)n1	> 100 µM	> 100 µM	> 100 µM	> 100 µM	> 100 µM	> 100 µM	> 100 µM													
CC(c1ccccc1)[C@@H](C(=O)Nc1ccc(I)cc1F)N1C(=O)N[C@H](c2ccc(OC[C@H](O)CO)cc2)C1=O (some centres undefined)	> 25 µM	> 25 µM		> 25 µM	> 22.6 µM	> 25 µM	0.892 µM	16.2 µM	14.3 µM	15.3 µM	> 25 µM	17 µM	16.3 µM	> 25 µM	4.2 µM	6.63 µM	10.2 µM	> 25 µM		0.052 µM
COc1cc(/C=C/c2ccc(Br)cc2)cc(OC)c1OC	> 87 µM	> 88 µM	> 61.3 µM	49.8 µM	54.6 µM	> 100 µM	> 95.5 µM													
COc1ccc2c(c1)[n+](=O)c(C(=O)C/C(=N/NC(=O)C[N+](C)(C)C)C(=O)Nc1cccc(C)c1C)c(C)n2O	> 100 µM		> 100 µM	> 100 µM	> 100 µM	> 100 µM	> 100 µM													
CC1=C(C(=O)NCc2ccccc2)C(c2ccccc2C)C(C(=O)NCc2ccccc2)=C(C)N1	> 100 µM	> 100 µM	> 100 µM	69.7 µM	43.7 µM	> 100 µM	> 76.4 µM													
CC(=O)OCC1OC(OCc2ccccc2)C(Br)C(OC(C)=O)C1OC(C)=O (centres undefined)	> 100 µM	> 100 µM		> 100 µM	> 100 µM	> 100 µM	> 100 µM													
CC(C)N(C(=O)C12C3C4C1C1C2C3C41I)C(C)C (centres undefined)	> 100 µM	> 100 µM	> 100 µM			> 100 µM														
COC1OC(CBr)C(OC(=O)c2ccccc2)C(OS(=O)(=O)c2ccc(C)cc2)C1Br (centres undefined)	> 100 µM	> 100 µM	> 100 µM	> 100 µM	> 100 µM	> 100 µM	> 100 µM													
COC(=O)C1(C)CC2C(C)(CCC3(C)C4=CC=C5C(=CC(=O)C(O)=C5C)C4(C)CCC23C)CC1O (centres undefined)	2.27 µM	0.538 µM	2.7 µM	3.51 µM	1.37 µM	2.81 µM	4.28 µM				2.71 µM			14.4 µM						
COc1ccc(Cl)cc1Nc1nc(C(F)(F)F)ccc1C(=O)N/N=C/c1cccnc1	> 100 µM	> 100 µM	> 100 µM	75 µM		> 100 µM	9.88 µM	3.84 µM	0.624 µM	7.22 µM	> 100 µM	5.22 µM	11.8 µM	> 100 µM		3.78 µM	2.12 µM	> 100 µM	2.98 µM	3.93 µM

From PubChem BioAssay (NCI)
